Entries after “also recorded” stand apart in the source; their conditions may differ.
Experiments:
[1] = test system: AML cell lines; experiment: Mitochondria O2.- assay (MitoSox, flow cytometry); assay type: cell-based
Protocol: 1.25×10^5 cells were harvested into 5 mL tubes and washed with PBS. Cell pellets were resuspended in 180 μL of PBS and 20 μL of freshly prepared 5 mM MitoSox (Molecular Probes, M36008) solution added to each tube. All tubes were incubated at 37° C. for 20 min and then cells washed 3 times with PBS. Cells were resuspended in 300 μL PBS and analysed on an LSRFortessa (BD Biosciences) flow cytometer. Results were analysed with FCS Express 4 Flow Research Edition software (De Novo Software).
For that, cells were plated at 10^6 cells/mL and treated with vehicle (DMSO) alone or a range of doses of EX 1 (0.1 nM, 1 nM, 10 nM and 100 nM) for 6 h, 8 h and 24 h. Cells were harvested for detection of ROS and superoxide anion (O2^·−) levels at 6 h and 24 h, for protein extraction at 8 h and 24 h, and for cell cycle analysis at 24 h.
Total ROS levels were measured by flow cytometry using the fluorogenic dye CM-H2DCFDA at a final concentration of 5 μM. Mitochondria superoxide anion (O2^·−) levels were measured by flow cytometry using MitoSox, also at a final concentration of 5 μM.

[2] = test system: GPR56+ LSC containing population of AML samples; experiment: LSC detection by flow cytometry (CD34, CD38, GPR56); assay type: cell-based, human
Protocol: 8×10^5 cells (800 μL) were harvested in 5 mL tubes and fixed with 1.6% formaldehyde for 10 min at room temperature. The samples were then washed once with PBS and once with PBS/1% BSA. The cell pellets were resuspended in 100 μL PBS/1% BSA containing 5 μL of anti-CD34-APC (BD Biosciences, clone 8G12, catalogue 340441, lot 6183704), 5 μL of anti-CD38-PECy7 (BD Biosciences, 335790, lot 3353807) and 5 μL of anti-GPR56-PE (Biolegend, 358204, lot B208353) and incubated at room temperature for 1 h in the dark. Finally, cells were washed twice with PBS and resuspended in 200 μL of PBS for analysis on an LSRFortessa (BD Biosciences) flow cytometer. Results were analysed with FCS Express 4 Flow Research Edition software (De Novo Software).
LSC analysis. AML BMMNC samples were first gated for viable cells and then the fraction of GPR56+ cells was determined. According to the report by Pabst and collaborators (Pabst et al, Blood 2016), in CD34^high AML samples the GPR56+ population containing LSCs is present within the CD34+ cells, while in CD34^low AML samples the GPR56+ population containing LSCs is present in both CD34+ and CD34− cell populations. Therefore, the LSC containing subpopulation was estimated from the CD34+/GPR56+ gate for AML235, and from the GPR56+/CD34+ and GPR56+/CD34− gates in AML136 and AML480 (FIG. 6A). A decrease in these subpopulations in response to EX 1 would be consistent with the drug targeting the important LSC-containing compartment. […] On the other hand, OXi4503 treatment, when compared to vehicle control (DMSO), had little effect on AML136 and no effect on AML235 and AML480 (FIG. 6B).

[3] = test system: primary AML samples L-AML6 and L-AML419; experiment: Blast cell colony assay (Methocult); assay type: cell-based, human; conditions: 13 days
Protocol: 1.5 mL of Methocult H4034 (STEMCELL Technologies) was aliquoted in 5 mL tubes (one tube/treatment/sample) and supplemented with 20 ng/mL of hIL-6 (Peprotech, 200-06). EX 1 and OXi4503 dilutions were added to respective tubes to the final concentrations 100 nM and 500 nM. DMSO was used as vehicle control. Samples were added to each tube to the final cell density: 2×10^4 cells/well for L-AML6 and L-AML419, 3×10^3 cells/well for AML136 and AML480. The tubes were shaken to mix drugs and cells with the Methocult and incubated at 37° C. for 10 min to remove bubbles. Samples were then plated in 24-well plates, 4 wells/treatment/sample in the 8 wells at the centre of the plate. The wells at the edges were filled with sterile water to avoid drying. Plates were incubated at 37° C. for 13 days before colonies were counted.
Blast cell colony assay. For colony assays AML MNC were plated in methylcellulose with added cytokines (see Methods) and colonies scored after 13 days. […] L-AML419 also formed a small number of colonies in the DMSO-treated wells, with fewer background cells.

[4] = L-AML419, all doses (100 nM and 500 nM)

Row | Structure (SMILES) | mitochondria O2.- levels ([1]; HL60 and ME1, 6 h) | mitochondria O2.- levels ([1]; KG1) | mitochondria O2.- levels ([1]; ME1, 24 h) | mitochondria O2.- levels ([1]; MV4;11 and MOLM13, 24 h) | mitochondria O2.- levels ([1]; OCI-AML3, 6 h) | mitochondria O2.- levels ([1]; OCI-AML3, 24 h) | GPR56+ LSC containing cell population ([2]; AML136, AML235, AML480, 48 h) | concentration at which the LSC population is decreased (as low as) ([2]; AML samples, 48 h, FIG. 6C) | colony formation ([3]; L-AML6, either dose (100 nM and 500 nM)) | colony formation [3, 4] | effect on GPR56+ LSC containing population vs DMSO ([2]; AML136, 48 h) | effect on GPR56+ LSC containing population vs DMSO ([2]; AML235 and AML480, 48 h) | colony formation ([3]; L-AML6, 100 nM) | colony formation ([3]; L-AML6, 500 nM)
1 | COc1cc(C(=O)c2c(C)oc3c(O)c(OC)ccc23)cc(OC)c1OC [EX 1, 2-Methyl-7-hydroxy-3-(3,4,5-trimethoxybenzoyl)-6-methoxybenzofuran] | showed a decrease in mitochondria O2^·− levels | did not respond to the drug treatment with any detectable changes | even greater effect observed at 24 h | increased mitochondria O2^·− levels observed at 24 h only | slight decrease | appeared to have increased O2^·− levels | affected at different rates | 20 nM | no colonies or background cells were observed; also recorded: Colony formation is blocked | completely blocked colony and background formation; also recorded: Colony formation is blocked |  |  |  | 
2 | COc1cc(/C=C\c2ccc(OC)c(OP(=O)(O)O)c2OP(=O)(O)O)cc(OC)c1OC [OXi4503, reference compound] |  |  |  |  |  |  |  |  |  | completely blocked colony and background formation; also recorded: completely inhibits colonies | little effect | no effect | reduced the background cells and also the number of colonies; also recorded: reduces colony formation | completely blocked colony formation; also recorded: completely inhibits colonies

— patent US11478445B2, “Method for treating acute myeloid leukemia” (Bionomics Limited, priority 2017, dated 2022)
